Laboratory results reported in PMC5942844, “Identification and characterization of the Fasciola hepatica sodium- and chloride-dependent taurine transporter” (PLoS Neglected Tropical Diseases, 2018).
Like-named read-outs stand apart in the source and are kept apart here.

Experiments:
[1] = biological target: T1, F. hepatica taurine transporter (FhTauT) (Fasciola hepatica, UniProt A0A2R4LGM2); experiment: cell-based
T1 sequence (A0A2R4LGM2 1-647): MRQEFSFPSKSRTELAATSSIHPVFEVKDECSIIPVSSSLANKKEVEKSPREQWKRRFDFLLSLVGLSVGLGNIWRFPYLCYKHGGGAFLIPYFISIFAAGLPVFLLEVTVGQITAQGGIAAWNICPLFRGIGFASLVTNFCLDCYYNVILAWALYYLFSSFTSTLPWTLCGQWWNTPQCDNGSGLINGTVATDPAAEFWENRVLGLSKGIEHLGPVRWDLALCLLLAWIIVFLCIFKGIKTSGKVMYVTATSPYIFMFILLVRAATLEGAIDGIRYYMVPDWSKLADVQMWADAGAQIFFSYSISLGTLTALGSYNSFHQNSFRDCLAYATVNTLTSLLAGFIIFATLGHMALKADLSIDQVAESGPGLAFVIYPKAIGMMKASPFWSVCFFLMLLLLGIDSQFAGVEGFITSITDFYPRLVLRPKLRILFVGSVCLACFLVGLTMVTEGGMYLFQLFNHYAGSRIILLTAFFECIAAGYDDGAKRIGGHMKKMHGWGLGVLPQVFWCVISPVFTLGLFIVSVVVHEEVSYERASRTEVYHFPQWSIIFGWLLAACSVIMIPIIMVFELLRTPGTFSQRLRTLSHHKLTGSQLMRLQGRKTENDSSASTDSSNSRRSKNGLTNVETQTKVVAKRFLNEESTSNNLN
Protocol: (§1) Human embryonic kidney-293 (HEK293 (ATCC CRL-1573, LGC standards Wesel, Germany)) cells, were grown in Dulbecco`s modified Eagle medium (DMEM) supplemented with 10% fetal bovine serum (FCS Nuaille, France), 100 units/ml penicillin and 100 μg/ml streptomycin at 37°C and with 5% CO2 in a humidified incubator. Cells were transfected with plasmids encoding fluorescently tagged or untagged versions of F. hepatica (FhTauT) and H. sapiens (HsTauT) taurine transporter using Jet Prime transfection reagent (Polyplus-transfection, France). To generate monoclonal cell lines stably expressing the transporters, transfected cells were subjected to and selected with the concentration of 0.2 mg/ml geneticin (G418) for 10 days. Surviving cells forming colonies were separated and analyzed for membrane localization of transporters and transport of taurine. After the selection process cells were kept at 50 μg/ml G418 to keep the selection pressure.
(§2) For saturation uptake experiments, cells were plated the day before the experiment at a density of about 50,000 cells/well onto poly (D-lysine)-coated 48-well culture plates (CytoOne, USA). On the day of the experiment, cells were washed with prewarmed Krebs-HEPES buffer twice (KHB) (120 mM NaCl, 3 mM KCl, 2 mM CaCl2, 2 mM MgCl2, 20 mM glucose, 10 mM HEPES, pH 7.3). Then, cells were incubated in KHB containing tracer amounts (0.1 μM) of [^3H]taurine, (19.1 Ci/mmol) (Perkin Elmer, USA) together with increasing concentrations of non-labeled taurine 10 min. The reaction was terminated after 10 minutes by removing the medium followed by rapid rinsing of cells with ice-cold assay buffer. Subsequently, cells were lysed with 0.5 ml of 1% sodium dodecyl sulfate (SDS) and transferred into scintillation vials for liquid scintillation counting. Non-specific uptake was determined by incubating cells in the presence of the blocker β-alanine (100 mM) before and during the experiment and subtracted from uptake values. Data were fit to a Michaelis-Menten equation.
(§3) Chloride-free KHB was prepared to examine the chloride dependence of both, FhTauT and HsTauT using acetate salts instead of chloride salts. Likewise, NaCl was replaced by choline chloride to examine the sodium requirement. Uptake experiments were performed as described above using 0.1 μM [^3H]taurine in sodium- and chloride-free modified KHB, respectively, mixed with increasing amounts of NaCl containing KHB thereby varying Na^+ and respectively Cl^- concentration from 0–120 mM. The inhibition experiments were performed in analogous manner with 0.1 μM [^3H]taurine and the logarithmically spaced concentrations of inhibitors.

taurine transporter = test system: taurine transporter; parameters: method as in PMID 1435737; conditions: 100 μM β-alanine; cited from earlier work
[2] = biological target: T2, human taurine transporter (HsTauT) (Homo sapiens, UniProt P31641); experiment: [3H]taurine uptake by HEK293 cells stably expressing the human taurine transporter; conditions: 0.1 μM [3H]taurine, 10 min
T2 sequence (P31641 1-620): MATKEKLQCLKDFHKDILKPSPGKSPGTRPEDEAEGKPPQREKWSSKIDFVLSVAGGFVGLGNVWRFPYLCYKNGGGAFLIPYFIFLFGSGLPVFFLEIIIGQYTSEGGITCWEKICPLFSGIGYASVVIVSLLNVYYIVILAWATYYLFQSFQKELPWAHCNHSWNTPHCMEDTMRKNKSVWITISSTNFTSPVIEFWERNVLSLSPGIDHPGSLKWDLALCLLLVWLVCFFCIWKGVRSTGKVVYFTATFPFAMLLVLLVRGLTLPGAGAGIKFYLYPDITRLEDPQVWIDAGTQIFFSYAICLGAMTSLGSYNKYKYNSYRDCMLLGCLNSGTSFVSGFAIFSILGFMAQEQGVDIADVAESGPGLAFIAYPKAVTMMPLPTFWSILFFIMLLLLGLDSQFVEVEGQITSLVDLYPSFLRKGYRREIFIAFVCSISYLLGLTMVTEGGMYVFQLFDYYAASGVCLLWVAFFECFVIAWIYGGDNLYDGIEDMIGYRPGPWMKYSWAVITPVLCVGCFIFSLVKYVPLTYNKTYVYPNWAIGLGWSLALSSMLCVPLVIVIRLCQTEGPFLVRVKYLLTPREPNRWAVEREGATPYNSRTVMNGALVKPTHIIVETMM
Protocol: as §1, §2, §3

[3] = biological target: T2, human taurine transporter (HsTauT); experiment: [3H]GABA uptake by HEK293 cells expressing the human taurine transporter; type: cell-based; parameters: expressed in transfected cells; conditions: 0.3 μM to 3 mM [3H]GABA, three minutes
Protocol: (§4) GABA uptake was assessed by incubating HEK293 cells (10^5/ well) stably expressing the human GABA-transporter-1 (HsGAT1, diamonds), the F. hepatica taurine transporter (FhTauT, circles) and the human taurine transporter (HsTauT, triangles) in KHB containing concentrations of [^3H]GABA covering the range of 0.3 μM to 3 mM for three minutes. The amount of labeled [^3H]GABA was kept constant and the specific activity was progressively diluted by the addition of unlabeled GABA (from 9 Ci/mmol to 9 Ci/mol). The reaction was stopped by the addition of ice-cold KHB followed by three rapid washes. Cells were detached and the accumulated radioactivity was determined by liquid scintillation counting.
(§5) Supplementary file pntd.0006428.s004.tif: S4 Fig [^3H]GABA uptake by the human GABA-transporter-1, the F. hepatica taurine transporter and the human taurine transporter. HEK293 cells (10^5/ well) stably expressing the human GABA-transporter-1 (HsGAT1, diamonds), the F. hepatica taurine transporter (FhTauT, circles) and the human taurine transporter (HsTauT, triangles) were incubated in the presence of the indicated concentrations of [^3H]GABA. The specific activity was progressively diluted by addition of unlabeled GABA (from 9 Ci/mmol to 9 Ci/mol). After three minutes the reaction was stopped and the accumulated radioactivity was determined by liquid scintillation counting. […]

[4] = test system: taurine transporter (Slc6a6/TauT); conditions: read-out: reported KM for GABA; cited from earlier work
[5] = biological target: T1, F. hepatica taurine transporter (FhTauT); experiment: [3H]GABA uptake by HEK293 cells expressing the F. hepatica taurine transporter; type: cell-based; conditions: 0.3 μM to 3 mM [3H]GABA, three minutes
Protocol: as §4, §5

| SMILES | IC50 [1] [mM] | affinity lower than that of taurine [1] | less potent in inhibiting the F. hepatica than the human transporter ([1]; human, hek293 cells) [fold] | inhibition of uptake (taurine transporter) | IC50 ([2]; IC50 for inhibition of [3H]taurine uptake) [mM] | uptake of [3H]GABA [3] | less potent in inhibiting the F. hepatica than the human transporter [1] | affinity lower than that of taurine ([1]; alternative substrates vs taurine) [fold] | IC50 ([1]; read-out: IC50 for inhibition of [3H]taurine uptake, 0.1 μM [3H]taurine, 10 min) [mM] | IC50 ([2]; read-out: IC50 for inhibition of [3H]taurine uptake) [mM] | Km [4] [µM] | uptake of [3H]GABA [5] | uptake of [3H]GABA ([5]; listed as [^3H]GABA) |
| --- | --- | --- | --- | --- | --- | --- | --- | --- | --- | --- | --- | --- | --- |
| NCCC(=O)O [β-alanine] | 0.713 ± 0.26 | about 50 fold | ~5 | about 50% | 0.132 ± 0.054 | – | – | – | – | – | – | – | – |
| NCCCC(=O)O [GABA] | – | – | – | – | – | failed to detect any uptake | about 3 fold | ~350 | 5.6 ± 0.9 | 1.6 ± 0.5 | 1460 | not of GABA | failed to detect any uptake |
